# “And” between values parts separate entries of the source, which are not always exact repeats. Equal values may be shown once.
# How the values were obtained:
# Type in all cases: cell-based
# glucocorticoid receptor = molecular target: T1, glucocorticoid receptor (Homo sapiens, UniProt P04150); test: Measurement 1 of glucocorticoid receptor reporter gene GRE activity; conditions: HEK293 transfected with pGL5 and pBIND-GR, 24 hours
# T1 construct: expressed in transfected cells; host or cells: HEK293
# T1 sequence (P04150 1-777): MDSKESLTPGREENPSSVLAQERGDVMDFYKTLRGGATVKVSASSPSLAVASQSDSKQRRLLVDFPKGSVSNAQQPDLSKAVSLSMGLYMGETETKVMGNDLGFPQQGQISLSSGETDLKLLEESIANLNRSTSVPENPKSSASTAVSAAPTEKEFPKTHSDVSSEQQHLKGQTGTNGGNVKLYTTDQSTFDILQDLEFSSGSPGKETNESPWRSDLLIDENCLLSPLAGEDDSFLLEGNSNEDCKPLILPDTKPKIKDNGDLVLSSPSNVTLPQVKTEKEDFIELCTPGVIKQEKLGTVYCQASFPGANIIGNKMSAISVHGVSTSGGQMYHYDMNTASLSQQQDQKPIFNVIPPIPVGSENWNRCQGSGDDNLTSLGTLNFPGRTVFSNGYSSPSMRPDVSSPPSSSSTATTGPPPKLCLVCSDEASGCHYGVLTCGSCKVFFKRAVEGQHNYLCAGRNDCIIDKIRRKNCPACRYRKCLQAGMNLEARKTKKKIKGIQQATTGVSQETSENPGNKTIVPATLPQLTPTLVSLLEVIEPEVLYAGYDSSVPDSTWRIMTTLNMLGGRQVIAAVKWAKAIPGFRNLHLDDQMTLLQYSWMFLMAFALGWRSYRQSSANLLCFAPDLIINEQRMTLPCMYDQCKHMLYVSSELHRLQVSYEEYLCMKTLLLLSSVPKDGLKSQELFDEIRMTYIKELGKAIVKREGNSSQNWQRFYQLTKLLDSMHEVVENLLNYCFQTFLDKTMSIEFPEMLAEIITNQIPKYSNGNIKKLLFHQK
# Description: (§1) HEK293 cells were cultured in DMEM+10% FBS medium in a carbon dioxide incubator humidified at 37° C. at 5% carbon dioxide.
# The prepared transfection mixtures were added to 10 mL of the cell density-adjusted resuspension, mixed well by turning the mixtures upside down, and seeded into a 96-well plate at a volume of 100 μL/well.
# (§2) The test plate was detected using the Dual-Glo Luciferase Assay System kit from Promega, and the fluorescence signal of Firefly Luciferase and the fluorescence signal of Renilla Luciferase were read using Enspire, respectively.
# The final measurement value was a normalized value “F/R” obtained by dividing the Firefly Luciferase fluorescent signal by the Renilla Luciferase fluorescent signal.
# The data were copied and pasted into Excel, and the activation rate was obtained through an equation.
# The data were imported into MS Excel and subjected to curve fitting by using XLFit excel add-in version 5.4.0.8 to obtain an EC50 value.
# (§3) Y is the agonism and X is the concentration of the compound.
# GR = molecular target: T2, GR (Homo sapiens, UniProt P04150); test: GR luciferase reporter gene elution experiment; set-up: concentration or dose not given beside the values; conditions: then 24 hours
# T2 construct: expressed in transfected cells; host or cells: HEK293
# T2 sequence (P04150 1-777): T1 sequence (P04150 1-777)
# Description: The compounds of the present application were evaluated for their ability to continue activation upon binding to GR.
# as §1
# (§4) • 1) HEK293 cells were trypsinized, and the HEK293 cell resuspension was adjusted to 200,000 cell/mL in medium (96 well plate: 100 μL/well). • 2) Transfection reagent mixtures were prepared according to the table below, mixed well and left at room temperature for 20 minutes.
# (§5) • 3) The prepared transfection mixtures were added to 10 mL of the cell density-adjusted resuspension, mixed well by turning the mixtures upside down, and seeded into a 96-well plate at a volume of 100 μL/well. • 4) The 96-well plate was incubated in a humidified incubator at 37° C. and 5% carbon dioxide for 24 hours.
# as §2
# • 1) The final measurement value was a normalized value “F/R” obtained by dividing the Firefly Luciferase fluorescent signal by the Renilla Luciferase fluorescent signal. • 2) The data were copied and pasted into Excel, and the activation rate was obtained through an equation.
# [formula] • 3) The data were imported into MS Excel and subjected to curve fitting by using XLFit excel add-in version 5.4.0.8 to obtain an EC50 value.
# as §3
# MR = molecular target: T3, MR (Homo sapiens, UniProt P08235); test: MR luciferase reporter gene experiment; conditions: HEK293 transfected with pBIND-MR
# T3 construct: expressed in transfected cells; host or cells: HEK293
# T3 sequence (P08235 1-984): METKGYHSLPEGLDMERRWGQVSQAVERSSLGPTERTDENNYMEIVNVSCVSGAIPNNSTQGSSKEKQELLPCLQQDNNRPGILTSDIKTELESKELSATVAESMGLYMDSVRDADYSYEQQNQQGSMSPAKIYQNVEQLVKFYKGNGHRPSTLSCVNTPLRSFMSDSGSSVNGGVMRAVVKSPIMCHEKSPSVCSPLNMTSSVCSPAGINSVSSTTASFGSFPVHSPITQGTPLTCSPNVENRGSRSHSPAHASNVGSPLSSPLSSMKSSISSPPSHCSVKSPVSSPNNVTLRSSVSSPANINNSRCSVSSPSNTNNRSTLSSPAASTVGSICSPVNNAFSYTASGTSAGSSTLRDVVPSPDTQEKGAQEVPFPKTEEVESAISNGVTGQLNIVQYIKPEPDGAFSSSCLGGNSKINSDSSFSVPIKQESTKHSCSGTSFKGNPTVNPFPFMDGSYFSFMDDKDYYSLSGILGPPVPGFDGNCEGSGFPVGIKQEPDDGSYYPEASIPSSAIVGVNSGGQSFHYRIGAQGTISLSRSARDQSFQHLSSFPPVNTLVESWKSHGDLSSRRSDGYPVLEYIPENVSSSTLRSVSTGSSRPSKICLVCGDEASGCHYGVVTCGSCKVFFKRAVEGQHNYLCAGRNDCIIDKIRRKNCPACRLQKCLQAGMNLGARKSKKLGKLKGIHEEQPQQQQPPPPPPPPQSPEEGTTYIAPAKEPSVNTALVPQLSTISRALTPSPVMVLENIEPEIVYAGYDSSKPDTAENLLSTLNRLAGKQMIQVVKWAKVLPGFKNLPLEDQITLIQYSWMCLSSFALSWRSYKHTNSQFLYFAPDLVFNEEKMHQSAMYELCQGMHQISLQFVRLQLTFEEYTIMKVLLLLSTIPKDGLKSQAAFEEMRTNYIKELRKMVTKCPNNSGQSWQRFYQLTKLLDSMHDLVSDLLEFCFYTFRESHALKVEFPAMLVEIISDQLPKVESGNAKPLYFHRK
# Description: as §1, §4, §5, §2, §3
smiles,measurement,setting,value
C[C@]12C=CC(=O)C=C1CC[C@@H]1[C@@H]2[C@@H](O)C[C@@]2(C)[C@H]1C[C@H]1O[C@@H](c3ccc(Cc4ccc(CO)cc4)cc3)O[C@]12C(=O)CO [Compound 4],EC50,glucocorticoid receptor,0.04 nM
same,Wash off time (Rate of activation %) 15 min,GR; wash off after 15 min,127.6% and 129.6%
same,Wash off time (Rate of activation %) 30 min,GR; wash off after 30 min,127.0% and 128.5%
same,Wash off time (Rate of activation %) 1 h,GR; wash off after 1 h,164.6% and 106.6%
same,Wash off time (Rate of activation %) 2 h,GR; wash off after 2 h,131.3% and 124.8%
same,Wash off time (Rate of activation %) 4 h,GR; wash off after 4 h,139.9% and 125.3%
same,EC50,MR,> 1000 nM

# Reference: patent publication US20250002527A1, “STEROID COMPOUND AND CONJUGATE THEREOF” (DUALITY BIOLOGICS (SUZHOU) CO., LTD., priority 2021, published 2025)
